Test results as given in PubChem BioAssay (NCI).
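At the GI50, growth is halved. TGI marks complete inhibition of growth.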

Tests used:
Test in all cases: growth of human tumour cells (NCI), 384-well format
ACHN renal = test system: ACHN renal
CCRF-CEM leukemia = test system: CCRF-CEM leukemia
SK-OV-3 ovarian = test system: SK-OV-3 ovarian
UACC-257 melanoma = test system: UACC-257 melanoma
MDA-MB-231 breast = test system: MDA-MB-231 breast
SN12C renal = test system: SN12C renal
T-47D breast = test system: T-47D breast
K-562 leukemia = test system: K-562 leukemia
SW-620 colon = test system: SW-620 colon
OVCAR-5 ovarian = test system: OVCAR-5 ovarian
U251 glioblastoma = test system: U251 glioblastoma
SNB-75 CNS = test system: SNB-75 CNS
OVCAR-3 ovarian = test system: OVCAR-3 ovarian
HCT-116 colon = test system: HCT-116 colon
NCI-H322M lung = test system: NCI-H322M lung
SF-268 CNS = test system: SF-268 CNS
UO-31 renal = test system: UO-31 renal
LOX IMVI melanoma = test system: LOX IMVI melanoma
MCF7 breast = test system: MCF7 breast
HL-60(TB) leukemia = test system: HL-60(TB) leukemia
EKVX NSCLC = test system: EKVX NSCLC
SNB-19 CNS = test system: SNB-19 CNS
HT29 colon = test system: HT29 colon
A498 renal = test system: A498 renal
PC-3 prostate = test system: PC-3 prostate
MDA-MB-468 breast = test system: MDA-MB-468 breast
HS 578T breast = test system: HS 578T breast
RPMI-8226 leukemia = test system: RPMI-8226 leukemia
HOP-62 NSCLC = test system: HOP-62 NSCLC
CAKI-1 renal = test system: CAKI-1 renal
NCI/ADR-RES ovarian = test system: NCI/ADR-RES ovarian
SF-539 CNS = test system: SF-539 CNS
MDA-MB-435 melanoma = test system: MDA-MB-435 melanoma
HCT-15 colon = test system: HCT-15 colon
NCI-H23 lung = test system: NCI-H23 lung
TK-10 renal = test system: TK-10 renal
OVCAR-4 ovarian = test system: OVCAR-4 ovarian
UACC-62 melanoma = test system: UACC-62 melanoma
786-0 renal = test system: 786-0 renal
M14 melanoma = test system: M14 melanoma
SK-MEL-2 melanoma = test system: SK-MEL-2 melanoma
NCI-H226 lung = test system: NCI-H226 lung
MALME-3M melanoma = test system: MALME-3M melanoma
IGROV1 ovarian = test system: IGROV1 ovarian
HOP-92 NSCLC = test system: HOP-92 NSCLC
DU-145 prostate = test system: DU-145 prostate
MOLT-4 leukemia = test system: MOLT-4 leukemia
BT-549 breast = test system: BT-549 breast
A549 NSCLC = test system: A549 NSCLC
SK-MEL-28 melanoma = test system: SK-MEL-28 melanoma
OVCAR-8 ovarian = test system: OVCAR-8 ovarian
SF-295 CNS = test system: SF-295 CNS
KM12 colon = test system: KM12 colon
RXF 393 renal = test system: RXF 393 renal
NCI-H522 lung = test system: NCI-H522 lung

`O=C1c2c(O)ccc(O)c2C(=O)c2c(NCCNCCO)ccc(NCCNCCO)c21` was tested, and the GI50 (ACHN renal) was 33.3 nM, the TGI (ACHN renal) was 251 nM and the GI50 (CCRF-CEM leukemia) was less than 10 nM. For the same compound, the TGI (CCRF-CEM leukemia) was less than 10 nM, the GI50 (SK-OV-3 ovarian) was 17.7 nM and the TGI (SK-OV-3 ovarian) was 661 nM. It also gave a GI50 (UACC-257 melanoma) of 1100 nM, a TGI (UACC-257 melanoma) of 2370 nM and a GI50 (MDA-MB-231 breast) of 18.7 nM. The TGI (MDA-MB-231 breast) was 97.9 nM, the GI50 (SN12C renal) was less than 10 nM and the TGI (SN12C renal) was 55.5 nM. It also gave a GI50 (T-47D breast) of 29.8 nM, a TGI (T-47D breast) of 1420 nM and a GI50 (K-562 leukemia) of 48.1 nM. It also gave a TGI (K-562 leukemia) of 240 nM, a GI50 (SW-620 colon) of less than 10 nM and a TGI (SW-620 colon) of 507 nM. For the same compound, the GI50 (OVCAR-5 ovarian) was 24.3 nM, the TGI (OVCAR-5 ovarian) was 284 nM and the GI50 (U251 glioblastoma) was less than 10 nM. For the same compound, the TGI (U251 glioblastoma) was 114 nM, the GI50 (SNB-75 CNS) was 22.9 nM and the TGI (SNB-75 CNS) was 130 nM. It also gave a GI50 (OVCAR-3 ovarian) of 186 nM, a TGI (OVCAR-3 ovarian) of 1160 nM and a GI50 (HCT-116 colon) of less than 10 nM. For the same compound, the TGI (HCT-116 colon) was 242 nM, the GI50 (NCI-H322M lung) was 313 nM and the TGI (NCI-H322M lung) was 1760 nM. The GI50 (SF-268 CNS) was less than 10 nM, the TGI (SF-268 CNS) was 154 nM and the GI50 (UO-31 renal) was 195 nM. For the same compound, the TGI (UO-31 renal) was 1650 nM, the GI50 (LOX IMVI melanoma) was 13.8 nM and the TGI (LOX IMVI melanoma) was 155 nM. It also gave a GI50 (MCF7 breast) of less than 10 nM, a TGI (MCF7 breast) of 1180 nM and a GI50 (HL-60(TB) leukemia) of less than 10 nM. The TGI (HL-60(TB) leukemia) was less than 10 nM, the GI50 (EKVX NSCLC) was 589 nM and the TGI (EKVX NSCLC) was 3540 nM. For the same compound, the GI50 (SNB-19 CNS) was 10.5 nM, the TGI (SNB-19 CNS) was 1120 nM and the GI50 (HT29 colon) was 34.4 nM. For the same compound, the TGI (HT29 colon) was 187 nM, the GI50 (A498 renal) was 11.4 nM and the TGI (A498 renal) was 217 nM. It also gave a GI50 (PC-3 prostate) of 135 nM, a TGI (PC-3 prostate) of 545 nM and a GI50 (MDA-MB-468 breast) of 16.8 nM. It also gave a TGI (MDA-MB-468 breast) of 59.8 nM, a GI50 (HS 578T breast) of less than 10 nM and a TGI (HS 578T breast) of 181 nM. For the same compound, the GI50 (RPMI-8226 leukemia) was less than 10 nM, the TGI (RPMI-8226 leukemia) was 37.1 nM and the GI50 (HOP-62 NSCLC) was less than 10 nM. It also gave a TGI (HOP-62 NSCLC) of 16 nM, a GI50 (CAKI-1 renal) of 13.3 nM and a TGI (CAKI-1 renal) of 642 nM. It also gave a GI50 (NCI/ADR-RES ovarian) of 4580 nM, a TGI (NCI/ADR-RES ovarian) greater than 100000 nM and a GI50 (SF-539 CNS) of less than 10 nM. It also gave a TGI (SF-539 CNS) of 124 nM, a GI50 (MDA-MB-435 melanoma) of 125 nM and a TGI (MDA-MB-435 melanoma) of 1100 nM. For the same compound, the GI50 (HCT-15 colon) was less than 10 nM, the TGI (HCT-15 colon) was 173 nM and the GI50 (NCI-H23 lung) was 12.9 nM. For the same compound, the TGI (NCI-H23 lung) was 102 nM, the GI50 (TK-10 renal) was 121 nM and the TGI (TK-10 renal) was 358 nM. It also gave a GI50 (OVCAR-4 ovarian) of 171 nM, a TGI (OVCAR-4 ovarian) of 660 nM and a GI50 (UACC-62 melanoma) of less than 10 nM. It also gave a TGI (UACC-62 melanoma) of 148 nM, a GI50 ([…]-0 renal) of 10.3 nM and a TGI (786-0 renal) of 246 nM. For the same compound, the GI50 (M14 melanoma) was 17.7 nM, the TGI (M14 melanoma) was 334 nM and the GI50 (SK-MEL-2 melanoma) was 83.9 nM. The TGI (SK-MEL-2 melanoma) was 189 nM, the GI50 (NCI-H226 lung) was 13.4 nM and the TGI (NCI-H226 lung) was 163 nM. It also gave a GI50 (MALME-3M melanoma) of 61.1 nM, a TGI (MALME-3M melanoma) of 388 nM and a GI50 (IGROV1 ovarian) of 185 nM. For the same compound, the TGI (IGROV1 ovarian) was 5370 nM, the GI50 (HOP-92 NSCLC) was 24.8 nM and the TGI (HOP-92 NSCLC) was 1190 nM. It also gave a GI50 (DU-145 prostate) of 19.6 nM, a TGI (DU-145 prostate) of 650 nM and a GI50 (MOLT-4 leukemia) of less than 10 nM. It also gave a TGI (MOLT-4 leukemia) of less than 10 nM, a GI50 (BT-549 breast) of 15.5 nM and a TGI (BT-549 breast) of 195 nM. For the same compound, the GI50 (A549 NSCLC) was less than 10 nM, the TGI (A549 NSCLC) was 181 nM and the GI50 (SK-MEL-28 melanoma) was 116 nM. For the same compound, the TGI (SK-MEL-28 melanoma) was 1370 nM, the GI50 (OVCAR-8 ovarian) was less than 10 nM and the TGI (OVCAR-8 ovarian) was 152 nM. It also gave a GI50 (SF-295 CNS) of 10.6 nM, a TGI (SF-295 CNS) of 44.7 nM and a GI50 (KM12 colon) of 44.7 nM. The TGI (KM12 colon) was 284 nM, the GI50 (RXF 393 renal) was 61 nM and the TGI (RXF 393 renal) was 210 nM. It also gave a GI50 (NCI-H522 lung) of 14.6 nM and a TGI (NCI-H522 lung) of 58 nM.
